Test results from patent US20250002954A1, “Novel Compound, Use Thereof, and Method for Producing Same, and Compound-Containing Composition, Method for Producing 4-Trehalosamine, and Microorganism” (Microbial Chemistry Research Foundation, priority 2021, published 2025).
One block for each compound: values may come before it.

How the values were obtained:
[1] = Measurement of critical micelle concentration (CMC) with CMC assay kit; type: physicochemical
Description: (§1) For the IMCTA-C8, IMCTA-C9, IMCTA-C10, IMCTA-C11, IMCTA-C12, IMCTA-C13, IMCTA-C14, and IMCTA-C15 (IMCTA-Cn) that were obtained in synthesis examples 1 to 8 and for n-dodecyl-β-D-maltoside (DDM) as control, “critical micelle concentration (CMC)”, “micelle size”, and “Hydrophilic-Lipophilic Balance (HLB) value” were measured or calculated in the following manner.
CMC was measured with a Detergent Critical Micelle Concentration (CMC) Assay Kit (CMC1000, manufactured by ProFoldin) according to the product protocol.

[2] = Measurement of micelle size by dynamic light scattering; type: physicochemical
Description: as §1
Micelle sizes were measured by dynamic light scattering with Zetasizer Nano S (manufactured by Malvern Panalytical).

[3] = test system: human ovarian cancer cells OVK18 and human malignant melanoma cells Mewo; experiment: Autophagy inducing effect on cultured cells (western blotting of autophagy-related proteins); type: cell-based; settings: for accumulation of PCD (precursors of cathepsin D) / concentration giving same or higher LC3-II expression, relative to trehalose / p62 / pAkt / phosphorylation of p70 S6K: 24 hours; for expression of LC3-II (autophagy marker): 24 hours treatment, western blotting
Description: Expression and phosphorylation patterns of autophagy-related proteins when human ovarian cancer cells or human malignant melanoma cells were treated with 4-trehalosamine and trehalose analog for 24 hours were determined by western blotting.
Human ovarian cancer cells OVK18 (obtained from RIKEN BRC) and human malignant melanoma cells Mewo (JCRB0066) were each inoculated on a 12-well microplate at 8×10^4 cells/mL/well and cultured in DMEM culture medium at 37° C. for 72 hours, after which they were treated with test samples.
The test samples used were the 4-trehalosamine (4TA) obtained in the <Purification process> of production example 10, trehalose (TRH), the IMCTA-Cn compounds obtained in synthesis examples 1 to 8, trehalose ester (TRH-Cn) (manufactured by Dojindo Laboratories), n-dodecyl-β-D-maltoside (DDM), maltose (MLT), sucrose (SCR), and rapamycin (RM). Untreated cells without addition of compounds were used as control.
In treatment with the test samples, in order to avoid contact of a compound with locally high concentration with cells, a half of the culture fluid in each well was taken, and a required amount of test sample was dissolved in it. After dissolving it sufficiently, it was returned to the original well and treated at 37° C. for 24 hours.
Subsequently, culture medium containing the test samples was removed, washed once with PBS, and dissolved with 2×SDS sample buffer not containing 2-mercaptoethanol (2-ME) or bromphenol blue (BPB). After measuring the protein concentration in the dissolved sample with a BCA protein assay kit (manufactured by Thermo Fisher Scientific), 2-ME and BPB were added and the sample was boiled for 5 minutes, which was used as a sample for western blotting.
The western blotting was performed in a similar manner to test example 4 except that anti-LC3 antibody, which is a marker for autophagy, anti-p62, anti-cathepsin D antibody, anti-Phospho-Akt (Ser473) antibody, anti-Akt antibody, anti-Phospho-p70 S6K (T389) antibody, and anti-p70 S6K antibody (all manufactured by Cell Signaling Technology) were used at 1/2,000 dilution as the primary antibodies in the method described in test example 4.
The results for human ovarian cancer cells OVK18 are shown in FIGS. 20A to 20C, and the results for human malignant melanoma cells Mewo are shown in FIGS. 20D to 20F. In FIGS. 20A, 20B, 20D, and 20E, “PCD” denotes precursors of cathepsin D and “CD-HC” denotes cathepsin D heavy chain.

[4] = test system: Mycobacterium smegmatis mc^2 (ATCC 700084); experiment: Staining of mycobacterium with IMCTA-fluorescein, IMCTA-biotin or IMCTA-azide; type: cell-based; settings: for ingestion into bacterial cells and fluorescence (staining): 10 μg/mL IMCTA-fluorescein, 30 μg/mL IMCTA-biotin, 10 μg/mL IMCTA-azide, 37° C., 8 hours; for ingestion in the presence of sucrose (blocking): sucrose 1% or 3%

- CMC [1]: 0.23 mM
- Micelle size [2]: 6.1 ± 0.1 nm
SMILES: CCCCCCCCCCCCO[C@@H]1O[C@H](CO)[C@@H](O[C@H]2O[C@H](CO)[C@@H](O)[C@H](O)[C@H]2O)[C@H](O)[C@H]1O [DDM, n-dodecyl-β-D-maltoside, reference compound]

- CMC [1]: 8.02 mM
- Micelle size [2]: 4.3 ± 1.7 nm
SMILES: CCCCCCCCN[C@@H]1C(CO)O[C@H](O[C@H]2OC(CO)[C@@H](O)C(O)C2O)C(O)C1O (some centres unmarked) [IMCTA-C8]

- CMC [1]: 3.84 mM
- Micelle size [2]: 5.5 ± 1.3 nm
SMILES: CCCCCCCCCN[C@@H]1C(CO)O[C@H](O[C@H]2OC(CO)[C@@H](O)C(O)C2O)C(O)C1O (some centres unmarked) [IMCTA-C9]

- CMC [1]: 2.67 mM
- Micelle size [2]: 5.9 ± 1.8 nm
SMILES: CCCCCCCCCCN[C@@H]1C(CO)O[C@H](O[C@H]2OC(CO)[C@@H](O)C(O)C2O)C(O)C1O (some centres unmarked) [IMCTA-C10]

- CMC [1]: 0.96 mM
- Micelle size [2]: 15.9 ± 6.5 nm
SMILES: CCCCCCCCCCCN[C@@H]1C(CO)O[C@H](O[C@H]2OC(CO)[C@@H](O)C(O)C2O)C(O)C1O (some centres unmarked) [IMCTA-C11]

- CMC [1]: 0.58 mM
- Micelle size [2]: 13.7 ± 6.4 nm
SMILES: CCCCCCCCCCCCN[C@@H]1C(CO)O[C@H](O[C@H]2OC(CO)[C@@H](O)C(O)C2O)C(O)C1O (some centres unmarked) [IMCTA-C12]

- CMC [1]: 0.24 mM
- Micelle size [2]: 17.3 ± 10.9 nm
SMILES: CCCCCCCCCCCCCN[C@@H]1C(CO)O[C@H](O[C@H]2OC(CO)[C@@H](O)C(O)C2O)C(O)C1O (some centres unmarked) [IMCTA-C13]
- accumulation of PCD (precursors of cathepsin D) [3]: no accumulation of PCD was observed
- concentration giving same or higher LC3-II expression, relative to trehalose [3]: several thousand times lower than trehalose
- p62 [3]: accumulation trend of p62
- pAkt [3]: decreasing trend of pAkt
- phosphorylation of p70 S6K [3]: p70 S6K was not dephosphorylated
- expression of LC3-II (autophagy marker) [3]: particularly strong expression

- CMC [1]: 0.06 mM
- Micelle size [2]: 92.5 ± 49 nm
SMILES: CCCCCCCCCCCCCCCN[C@@H]1C(CO)O[C@H](O[C@H]2OC(CO)[C@@H](O)C(O)C2O)C(O)C1O (some centres unmarked) [IMCTA-C15]
- accumulation of PCD (precursors of cathepsin D) [3]: no accumulation of PCD was observed
- concentration giving same or higher LC3-II expression, relative to trehalose [3]: several thousand times lower than trehalose
- p62 [3]: accumulation trend of p62
- pAkt [3]: decreasing trend of pAkt
- phosphorylation of p70 S6K [3]: p70 S6K was not dephosphorylated
- expression of LC3-II (autophagy marker) [3]: particularly strong expression

SMILES: [N-]=[N+]=N[C@@H]1C(CO)O[C@H](O[C@H]2OC(CO)[C@@H](O)C(O)C2O)C(O)C1O (some centres unmarked) [IMCTA-azide, 4-azide-4-deoxy-trehalose]
- ingestion into bacterial cells and fluorescence (staining) [4]: ingested into Mycobacterium smegmatis bacterial cells and emitted fluorescence
- fluorescence strength compared among labelers ([4]; same amount of labeler): strongest fluorescence
- ingestion in the presence of sucrose (blocking) [4]: suppression of ingestion was observed
- ingestion in the presence of trehalose (blocking) ([4]; trehalose 1% or 3%): suppression of ingestion was observed

SMILES: O=C(CCCC[C@@H]1SC[C@@H]2NC(=O)N[C@@H]21)N[C@@H]1C(CO)O[C@H](O[C@H]2OC(CO)[C@@H](O)C(O)C2O)C(O)C1O (some centres unmarked) [IMCTA-biotin]
- ingestion into bacterial cells and fluorescence (staining) [4]: ingested into Mycobacterium smegmatis bacterial cells and emitted fluorescence
- staining pattern ([4]; fluorescence microscope): patch-like staining pattern
- ingestion in the presence of sucrose (blocking) [4]: some suppression of ingestion by sucrose
